For this assay, the system named is BDF1 mice, P388 leukemia ip, median survival T/C. Nature of the assay: NCI In Vivo Anticancer Drug Screen. Data for tumor model P388 Leukemia (intraperitoneal) in B6D2F1 (BDF1) mice. The conditions noted are these: endpoint: median survival time, higher = longer survival. An outline of the steps:
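Mice carrying the transplantable tumour receive compound or vehicle. Survival is followed in each arm, and the treated measure is divided by the vehicle measure.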

Values joined by “and” are separate entries in the source; they are usually repeats but may differ in a detail not shown here. Equal entries are not always repeated. Toxic doses and inconclusive results are not listed.

For `C=C1[C@@H](O)[C@]2(O)OC[C@@]34[C@H]1[C@@H](OC(=O)C(C)CC)C(=O)O[C@@H]3C[C@H]1C(C)=CC(=O)[C@@H](O)[C@]1(C)[C@@H]24` (some centres undefined), the T/C is 184 % of control (dose: 0.5 mg/kg/injection, schedule: Q01DX009 (ip), vehicle: saline with Tween-80); 159 % of control (dose: 1.0 mg/kg/injection, schedule: Q01DX009 (ip), vehicle: saline with Tween-80); 153 % of control (dose: 1.0 mg/kg/injection, schedule: Q01DX009 (ip), vehicle: saline); 178 % of control (dose: 2.0 mg/kg/injection, schedule: Q01DX009 (ip), vehicle: saline with Tween-80); 166 % of control (dose: 4.0 mg/kg/injection, schedule: Q01DX009 (ip), vehicle: saline); 95 % of control (dose: 8.0 mg/kg/injection, schedule: Q01DX009 (ip), vehicle: saline).

Regarding `CSC(=S)NN=C(C)C`, under “dose: 3.13 mg/kg/injection, schedule: Q01DX009 (ip), vehicle: saline with Tween-80”, the T/C is 96 % of control.

In the case of `COC(=O)/C=C/c1cccnc1`, the T/C reads like this: (dose: 25.0 mg/kg/injection, schedule: Q04DX003 (ip), vehicle: Klucel (hydroxypropylcellulose) (HPC)) 100 % of control; (dose: 50.0 mg/kg/injection, schedule: Q04DX003 (ip), vehicle: Klucel (hydroxypropylcellulose) (HPC)) 90 % of control; (dose: 100.0 mg/kg/injection, schedule: Q04DX003 (ip), vehicle: Klucel (hydroxypropylcellulose) (HPC)) 95 % of control; (dose: 200.0 mg/kg/injection, schedule: Q04DX003 (ip), vehicle: Klucel (hydroxypropylcellulose) (HPC)) 90 % of control.

In the case of `CCOC(=O)CCOc1ccccc1N(CCCl)CCCl`, the T/C runs as follows: (dose: 0.66 mg/kg/injection, schedule: Q04DX003 (ip), vehicle: other) 100 % of control; (dose: 1.0 mg/kg/injection, schedule: Q04DX003 (ip), vehicle: other) 104 % of control; (dose: 1.5 mg/kg/injection, schedule: Q04DX003 (ip), vehicle: other) 104 % of control; (dose: 1.56 mg/kg/injection, schedule: Q04DX003 (ip), vehicle: other) 154 % of control; (dose: 2.25 mg/kg/injection, schedule: Q04DX003 (ip), vehicle: other) 114 % of control; (dose: 3.0 mg/kg/injection, schedule: Q04DX003 (ip), vehicle: saline sonified) 100 % of control. Besides, the T/C was 181 % of control (dose: 3.13 mg/kg/injection, schedule: Q04DX003 (ip), vehicle: other); 172 % of control (dose: 3.5 mg/kg/injection, schedule: Q04DX003 (ip), vehicle: saline with Tween-80); 190 % of control (dose: 5.2 mg/kg/injection, schedule: Q04DX003 (ip), vehicle: saline with Tween-80); 100 % of control (dose: 6.0 mg/kg/injection, schedule: Q04DX003 (ip), vehicle: saline sonified); 100 % of control (dose: 9.0 mg/kg/injection, schedule: Q04DX003 (ip), vehicle: saline sonified); 227 % of control (dose: 11.0 mg/kg/injection, schedule: Q04DX003 (ip), vehicle: other). The T/C reads like this: (dose: 12.0 mg/kg/injection, schedule: Q01DX009 (ip), vehicle: saline) 152 % of control; (dose: 12.0 mg/kg/injection, schedule: Q04DX003 (ip), vehicle: saline) 156 % of control; (dose: 12.5 mg/kg/injection, schedule: Q04DX003 (ip), vehicle: other) 222 % of control; (dose: 16.5 mg/kg/injection, schedule: Q04DX003 (ip), vehicle: other) 294 % of control; (dose: 25.0 mg/kg/injection, schedule: Q04DX003 (ip), vehicle: other) 150 % of control; (dose: 25.0 mg/kg/injection, schedule: Q04DX003 (ip), vehicle: saline sonified) 159 % of control. Moreover, the T/C by setting is: (dose: 50.0 mg/kg/injection, schedule: Q04DX003 (ip), vehicle: saline sonified) 159 % of control; (dose: 100.0 mg/kg/injection, schedule: Q04DX003 (ip), vehicle: saline sonified) 168 % of control.

For the compound `COc1cc2cc3cc4cc(OC)c(OC)cc4c(C)[n+]3cc2cc1OC` (tested in a mixture with another compound), the T/C (dose: 10.0 mg/kg/injection, schedule: Q01DX009 (ip), vehicle: Klucel (hydroxypropylcellulose) (HPC)) is 163 % of control; the T/C (dose: 20.0 mg/kg/injection, schedule: Q01DX009 (ip), vehicle: Klucel (hydroxypropylcellulose) (HPC)) was 155 % of control; the T/C (dose: 20.0 mg/kg/injection, schedule: Q01DX009 (ip), vehicle: saline) was 180 % of control; the T/C (dose: 40.0 mg/kg/injection, schedule: Q01DX009 (ip), vehicle: Klucel (hydroxypropylcellulose) (HPC)) is 163 % of control; the T/C (dose: 40.0 mg/kg/injection, schedule: Q01DX009 (ip), vehicle: saline) was 150 % of control; the T/C (dose: 40.0 mg/kg/injection, schedule: Q04DX003 (ip), vehicle: saline) is 154 % of control and 166 % of control. For the same compound, the T/C runs as follows: (dose: 80.0 mg/kg/injection, schedule: Q01DX009 (ip), vehicle: Klucel (hydroxypropylcellulose) (HPC)) 163 % of control; (dose: 80.0 mg/kg/injection, schedule: Q01DX009 (ip), vehicle: saline) 180 % of control; (dose: 80.0 mg/kg/injection, schedule: Q04DX003 (ip), vehicle: saline) 157 % of control; (dose: 120.0 mg/kg/injection, schedule: Q01DX009 (ip), vehicle: saline) 150 % of control; (dose: 160.0 mg/kg/injection, schedule: Q01DX009 (ip), vehicle: Klucel (hydroxypropylcellulose) (HPC)) 154 % of control; (dose: 160.0 mg/kg/injection, schedule: Q01DX009 (ip), vehicle: saline) 200 % of control. For the same compound, the T/C was 154 % of control (dose: 160.0 mg/kg/injection, schedule: Q04DX003 (ip), vehicle: saline); 99 % of control (dose: 168.0 mg/kg/injection, schedule: Q04DX003 (ip), vehicle: saline); 92 % of control (dose: 250.0 mg/kg/injection, schedule: Q04DX003 (ip), vehicle: saline).

For the compound `N#CC(C#N)c1nc2cccnc2s1`, the T/C runs as follows: (dose: 100.0 mg/kg/injection, schedule: Q04DX003 (ip), vehicle: saline with Tween-80) 109 % of control; (dose: 200.0 mg/kg/injection, schedule: Q04DX003 (ip), vehicle: saline with Tween-80) 93 % of control.

For the compound `S=c1[nH]c2nccnc2[nH]1`, the T/C is 95 % of control (dose: 25.0 mg/kg/injection, schedule: Q01DX009 (ip), vehicle: saline with Tween-80); 100 % of control (dose: 50.0 mg/kg/injection, schedule: Q01DX009 (ip), vehicle: saline with Tween-80); 95 % of control (dose: 100.0 mg/kg/injection, schedule: Q01DX009 (ip), vehicle: saline with Tween-80); 95 % of control (dose: 200.0 mg/kg/injection, schedule: Q01DX009 (ip), vehicle: saline with Tween-80); 104 % of control (dose: 400.0 mg/kg/injection, schedule: Q01DX009 (ip), vehicle: saline with Tween-80).

As for `F`, the T/C is, setting by setting: (dose: 0.25 mg/kg/injection, schedule: Q01DX009 (ip), vehicle: water) 113 % of control; (dose: 0.5 mg/kg/injection, schedule: Q01DX009 (ip), vehicle: water) 95 % of control; (dose: 0.62 mg/kg/injection, schedule: Q01DX009 (ip), vehicle: water) 86 % of control; (dose: 1.25 mg/kg/injection, schedule: Q01DX009 (ip), vehicle: water) 100 % of control; (dose: 2.5 mg/kg/injection, schedule: Q01DX009 (ip), vehicle: water) 95 % of control; (dose: 5.0 mg/kg/injection, schedule: Q01DX009 (ip), vehicle: water) 100 % of control. The T/C by setting is: (dose: 6.25 mg/kg/injection, schedule: Q01DX009 (ip), vehicle: water) 100 % of control; (dose: 6.25 mg/kg/injection, schedule: Q04DX003 (ip), vehicle: saline) 100 % of control; (dose: 12.5 mg/kg/injection, schedule: Q01DX009 (ip), vehicle: saline) 100 % of control; (dose: 12.5 mg/kg/injection, schedule: Q01DX009 (ip), vehicle: water) 100 % of control; (dose: 12.5 mg/kg/injection, schedule: Q04DX003 (ip), vehicle: saline) 100 % of control; (dose: 25.0 mg/kg/injection, schedule: Q01DX009 (ip), vehicle: saline) 100 % of control. Further, the T/C (dose: 25.0 mg/kg/injection, schedule: Q01DX009 (ip), vehicle: water) was 95 % of control; the T/C (dose: 25.0 mg/kg/injection, schedule: Q04DX003 (ip), vehicle: saline) is 100 % of control; the T/C (dose: 33.0 mg/kg/injection, schedule: Q04DX003 (ip), vehicle: saline) was 104 % of control; the T/C (dose: 50.0 mg/kg/injection, schedule: Q04DX003 (ip), vehicle: saline) was 95 % of control.

(Values after PubChem BioAssay AID328 (DTP/NCI, 2004).)
